One test has as its system C2C12 cells. Put plainly: 2-NBDG glucose uptake in C2C12 cells (flow cytometry). It is filed as cell-based, mouse. The following applies: C2C12 cells; n = 3; FIG. 17. The protocol:
(§1) 2-NBDG is a fluorescently-labeled deoxyglucose analog that is commonly used to directly monitor glucose uptake by living cells. For 2-NBDG detection, cells were cultured for 1 h together with 5 μM of a small molecule in glucose free media supplied with 100 μM 2-NBDG at 37° C. before collecting. Furthermore, as internal controls, samples of glucose free media, rFc4espectively glucose free media with test compound, were tested. Subsequently, cells were washed, trypsinized and harvested in ice-cold PBS before centrifuged at 1.6×10^3 rpm at 4° C. Cells were analyzed by flow cytometry (FACS Calibur, BD Bioscience, respectively a BD Accuri® C6 Flow Cytometer).
as §1, with “an inventive compound” for “a small molecule”, “media,” for “media, rFc4espectively”, “compound, respectively glucose free media supplied with 100 μM 2-NBDG” for “compound,”
(A flow cytometer gives signals particle by particle.)

For a further test, the system named is 3T3-L1 pre-adipocytes. Description: 2-NBDG uptake in 3T3-L1 pre-adipocytes. The settings on record: 3T3-L1 pre-adipocytes; n = 3; FIG. 19. The format is cell-based.
A further test concerns beta TC6 cells. Description: 2-NBDG uptake in beta TC6 cells. It is filed as cell-based, mouse. The settings on record: n = 3, FIG. 18.
A further test has as its target T1, full length GRK5 (Homo sapiens, UniProt P34947).
T1 construct: 6/2 fold concentrated full length GRK5 (Millipore, #14-714) in reaction buffer; purchased Millipore 14-714
Description: GRK5 kinase activity assay, ADP Glo Kinase Assay technology (Promega). The format is biochemical. The following applies: primary screen, final assay concentration 100 μM. An outline of the steps:
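Casein (10 μM) phosphorylation with 100 μM ATP in 20 mM MES pH 6.0, 1 mM DTT, 10 mM MgCl2, 0.01% Tween20, 120 min at room temperature; ADP quantified by ADP-Glo luminescence.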

Another test relates to matured C2C12 myotubes. Description: 2-NBDG uptake in matured C2C12 myotubes. The format is cell-based, mouse. The settings on record: relative to DMSO = 1; n = 2. An excerpt: (§2) Inhibition of GRK5 led to an increased uptake of the fluorescent glucose analogue 2-NBDG in matured C2C12 myotubes (FIG. 20) and 3T3-L1 adipocytes (FIG. 21) for all five compounds (summarized in table 7). In line with C2C12 cells, the matured myotubes display an increase 2-NBDG uptake after inhibition of GRK5 by compounds 1-5.

The test system of test [1] is beta-TC6 insulinoma cells. Description: Insulin release by beta-TC6 cells, rat/mouse insulin ELISA, high glucose. It is filed as cell-based. On the technique in general: An ELISA detects its analyte on a solid surface through an enzyme-linked reagent.
In the next test the test system is 3T3-L1 adipocytes. Description: 2-NBDG uptake in matured 3T3-L1 adipocytes. It is filed as cell-based. The settings on record: relative to DMSO = 1; n = 2.
Source text: as §2

Another test has as its system beta-TC6 cells. Description: Insulin HTRF assay on beta-TC6 supernatant (relative activity Ar). The settings on record: group I. The format is cell-based, mouse. An excerpt:
For further screening of compounds derived from compounds described above for their ability to regulate insulin release an insulin HTRF® (Homogeneous Time-Resolved Fluorescence; Cisbio International, France) was used. This assay is based on two antibodies against insulin binding to different epitopes of insulin. One of these antibodies is coupled to Europium (Ab-Eu-Cryptate) and the other one to the fluorophore XL665 (Ab-XL665). If the insulin is secreted into the supernatant of cell culture, both antibodies can bind to insulin and come therefore into close proximity, which allows upon excitation that energy transfer between (FRET) the long-life fluorescent donor Europium (cryptate) and the acceptors XL665. FRET increases proportionally with insulin concentration.
On day 1, 15 k beta-TC6 cells per well were seeded for 24 or 48 h in 50 μL complete medium. On day 2 or respective on day 3, the medium is removed and cells are washed with 60 μL 1×PBS and 20 μL induction buffer is added using BioTek washer. Subsequently, 10 μL Sunitininb (5-μM f.c.) or the test compound in induction buffer; 0.5% f.c. DMSO (CyBi-well) is transferred to the cells. The cells are then incubated at 37° C. for 2, 3, 4 h. […]
First 10 μL supernatant is transferred from the cell plates in HTRF plates (CyBi-well). […] Finally HTRF is measured on ViewLux ultra high throughput microplate imager (PerkinElmer). […]
In general terms: Time-resolved FRET reads energy transfer from a long-lived donor to a nearby acceptor.

Values joined by “and” are separate entries in the source; they are usually repeats but may differ in a detail not shown here. Equal values may be shown once.

T1 sequence (P34947 whole entry): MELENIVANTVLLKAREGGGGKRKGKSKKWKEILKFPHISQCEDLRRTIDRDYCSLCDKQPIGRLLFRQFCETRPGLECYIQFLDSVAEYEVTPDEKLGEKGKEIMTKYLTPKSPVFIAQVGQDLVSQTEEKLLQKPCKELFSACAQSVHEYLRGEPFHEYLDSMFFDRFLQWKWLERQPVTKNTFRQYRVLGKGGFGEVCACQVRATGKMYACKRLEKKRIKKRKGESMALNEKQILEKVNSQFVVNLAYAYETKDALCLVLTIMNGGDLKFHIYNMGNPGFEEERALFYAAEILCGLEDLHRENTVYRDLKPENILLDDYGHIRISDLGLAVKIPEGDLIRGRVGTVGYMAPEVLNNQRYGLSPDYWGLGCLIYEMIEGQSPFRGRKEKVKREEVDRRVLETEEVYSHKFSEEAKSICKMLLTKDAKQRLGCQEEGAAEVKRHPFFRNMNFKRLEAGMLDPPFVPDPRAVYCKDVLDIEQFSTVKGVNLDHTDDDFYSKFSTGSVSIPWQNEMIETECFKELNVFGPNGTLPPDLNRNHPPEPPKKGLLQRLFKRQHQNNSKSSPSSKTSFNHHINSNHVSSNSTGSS

As to `Nc1cccc(-c2cc3cnc(Nc4cccnc4)cc3[nH]2)c1` [C2], the “2-NBDG glucose uptake, Ratio (average, DMSO = 1)” value in the test on C2C12 cells is 2.127; in the test on 3T3-L1 pre-adipocytes it was 1.111; with beta TC6 cells it was 1.529. In addition, the “Inhibition of Grk5 [%]” value at full length GRK5 was 60.0%. Also, the “2-NBDG uptake Ratio, C2C12 myotubes matured” value in the test on matured C2C12 myotubes is 2.383. Moreover, the “Insulin release (average, relative to DMSO = 1)” value in test [1] (beta-TC6, 5 μM) was 2.58±0.94 and 2.58; in test [1] (beta-TC6, 10 μM) it was 2.01±0.19 and 2.01. For the same compound, the “2-NBDG uptake Ratio, 3T3-L1 adipocytes matured” value in the test with 3T3-L1 adipocytes was found to be 2.234.

Consider `CS(=O)(=O)c1ccc(Nc2nccc3[nH]c(-c4ccccc4)cc23)cc1` [compound 324, N-(4-methylsulfonylphenyl)-2-phenyl-1H-pyrrolo[3,2-c]pyridin-4-annine], for which the “Ar (relative activity)” value in the test on beta-TC6 cells is “+++ (50% ≦ Ar < 100%)”.

In the case of `COc1cc(Nc2nccc3c2cc(-c2ccc(C(=O)N(C)C)cc2)n3C)cc(C(F)(F)F)c1` [compound 220, N,N-dimethyl-4-[1-methyl-4-(3-methoxy-5-(trifuloromethyl)phenylamino)pyrrolo[3,2-c]pyridin-2-yl]benzamide], in the test on beta-TC6 cells, the “Ar (relative activity)” value was “+ (0% < Ar < 30%)”.

The record behind these values is US9458463B2, “Method for treatment of diabetes by a small molecule inhibitor for GRK5” (MAX-PLANCK-GESELLSCHAFT ZUR FÖRDERUNG DER WISSENSCHAFTEN …, priority 2010, dated 2016).
